Data as given in patent publication EP0677039B1, “CYCLOBUTANE DERIVATIVES AS INHIBITORS OF […] SYNTHETASE AND PROTEIN […]” (Abbott Laboratories, priority 1993, dated 1995).

Target: T1, Rat liver microsomal squalene synthetase (Rattus norvegicus, UniProt Q02769)
T1 construct: Rat liver microsome, the source of enzyme; from tissue; host or cells: rat liver microsomes
T1 sequence (Q02769 1-416): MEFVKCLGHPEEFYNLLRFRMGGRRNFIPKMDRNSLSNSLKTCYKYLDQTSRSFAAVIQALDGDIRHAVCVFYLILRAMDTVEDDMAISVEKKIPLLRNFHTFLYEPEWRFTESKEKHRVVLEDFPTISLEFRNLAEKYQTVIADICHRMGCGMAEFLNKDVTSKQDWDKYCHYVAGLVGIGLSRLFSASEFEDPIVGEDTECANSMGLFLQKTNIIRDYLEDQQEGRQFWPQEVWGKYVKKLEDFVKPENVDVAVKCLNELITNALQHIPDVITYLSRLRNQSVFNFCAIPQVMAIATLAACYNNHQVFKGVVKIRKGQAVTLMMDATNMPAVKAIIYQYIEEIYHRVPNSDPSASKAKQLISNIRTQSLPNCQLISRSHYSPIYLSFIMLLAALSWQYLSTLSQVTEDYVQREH
Assay: In vitro inhibition of squalene synthetase
Type: biochemical
Settings: rat liver microsomes, labelled farnesyl pyrophosphate, 10 minutes at 37 °C; for inhibition at 1 µM: values marked * in Table 1: 1 µM test compound; for inhibition at 10 µM: 10 µM test compound, compared to controls with no test compound
Method in brief: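 Percent inhibition at 10 µM (or 1 µM), against controls without compound, was scored from radioactive squalene formed from labelled farnesyl pyrophosphate by rat liver microsomal enzyme. Incubations were kept oxygen-free with nitrogen and stopped with ethanolic KOH; squalene was isolated by hexane extraction and an alumina column.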

Row | inhibition at 1 µM | inhibition at 10 µM | SMILES
1 | 82% |  | CCCN(Cc1ccc(Oc2ccccc2)cc1)C(=O)C1C(C(=O)O)C(C(O)C(=O)O)C1C(=O)N(CCC)Cc1ccc(Oc2ccccc2)cc1 (stereo not drawn) [Example 78B, (1α,2β,3β,4α)-1,2-Di[N-propyl-N-(4-phenoxybenzyl)aminocarbonyl]-4-(1-carboxy-1-hydroxymethyl)cyclobutane-3-carboxylic acid]
2 |  | 73% | CCCN(Cc1cccc(Oc2ccccc2)c1)C(=O)C1C(C(=O)O)C(C(=O)O)C1C(=O)N(CCC)Cc1cccc(Oc2ccccc2)c1 (stereo not drawn) [Example 81B, (1α,2β,3β,4α)-1,2-Di[N-propyl-N-(3-phenoxybenzyl)aminocarbonyl]cyclobutane-3.4-dicarboxylic acid]
3 |  | 67% | CCCN(Cc1ccc(Oc2ccccc2)o1)C(=O)C1C(C(=O)O)C(C(=O)O)C1C(=O)N(CCC)Cc1ccc(Oc2ccccc2)o1 (stereo not drawn) [Example 82B, (1α,2β,3β,4α)-1,2-Di[N-propyl-N-(5-phenoxyfurfuryl)aminocarbonyl}cyclobutane-3,4-dicarboxylic acid]
4 |  | 85% | CCCN(Cc1ccc(Oc2ccccc2)s1)C(=O)C1C(C(=O)O)C(C(=O)O)C1C(=O)N(CCC)Cc1ccc(Oc2ccccc2)s1 (stereo not drawn) [Example 83B, (1α,2β,3β,4α)-1,2-Di[N-propyl-N-(5-phenoxythien-2-ylmethyl)aminocarbonyl]cyclobutane-3,4-dicarboxylic acid]
5 |  | 89% | CCCN(Cc1ccc(Oc2ccco2)cc1)C(=O)C1C(C(=O)O)C(C(=O)O)C1C(=O)N(CCC)Cc1ccc(Oc2ccco2)cc1 (stereo not shown) [Example 84G]
6 | 56% |  | CCCN(Cc1ccc(Oc2nccs2)cc1)C(=O)C1C(C(=O)O)C(C(=O)O)C1C(=O)N(CCC)Cc1ccc(Oc2nccs2)cc1 (stereo not shown) [Example 85]
7 |  | 86% | CCCN(Cc1ccc(Cn2cccc2)cc1)C(=O)C1C(C(=O)O)C(C(=O)O)C1C(=O)N(CCC)Cc1ccc(Cn2cccc2)cc1 (stereo not drawn) [Example 86D, (1α,2β,3β,4α)-1,2-Di[N-propyl-N-(4,(pyrrol-1-ylmethyl)benzyl)aminocarbonyl]cyclobutane-3,4-dicarboxylic acid]
8 |  | 72% | CCCN(Cc1ccc(Oc2cccc(C)c2)cc1)C(=O)C1C(C(=O)O)C(C(=O)O)C1C(=O)N(CCC)Cc1ccc(Oc2cccc(C)c2)cc1 (stereo not drawn) [Example 87B, (1α,2β,3β,4α)-1,2-Di{N-propyl-[4-(3'-methyl)phenoxybenzyl]aminocarbonyl}cyclobutane-3,4-dicarboxylic acid]
9 |  | 86% | CCCN(Cc1ccc(Oc2ccc3ccccc3c2)cc1)C(=O)C1C(C(=O)O)C(C(=O)O)C1C(=O)N(CCC)Cc1ccc(Oc2ccc3ccccc3c2)cc1 (stereo not drawn) [Example 88, (1α,2β,3β,4α)-1,2-Di[N-propyl-N-(4-naphth-2-yloxybenzyl)aminocarbonyl]cyclobutane-3,4-dicarboxylic acid]
10 |  | 88% | CCCN(Cc1ccc(Oc2ccccc2)c(C)c1)C(=O)C1C(C(=O)O)C(C(=O)O)C1C(=O)N(CCC)Cc1ccc(Oc2ccccc2)c(C)c1 (stereo not drawn) [Example 89C, (1α,2β,3β,4α)-1-2-Di{N-propyl-[3-methyl-4-phenoxybenzyl]aminocarbonyl}cyclobutane-3,4-dicarboxylic acid]
11 |  | 53% | CCCN(Cc1ccc(Oc2ccc(C)cc2)cc1)C(=O)C1C(C(=O)O)C(C(=O)O)C1C(=O)N(CCC)Cc1ccc(Oc2ccc(C)cc2)cc1 (stereo not drawn) [Example 90, (1α,2β,3β,4α)-1,2-Di[N-propyl-N-(4-(4-methyl-1-phenoxy)benzyl)aminocarbonyl]cyclobutane-3,4-dicarboxylic acid]
12 |  | 62% | CCCN(Cc1ccc(Oc2cccc3ccccc23)cc1)C(=O)C1C(C(=O)O)C(C(=O)O)C1C(=O)N(CCC)Cc1ccc(Oc2cccc3ccccc23)cc1 (stereo not drawn) [Example 91, (1α,2β,3β,4α)-1,2-Di[N-propyl-N-(4-naphth-1-yloxybenzyl)aminocarbonyl]cyclobutane-3,4-dicarboxylic acid]
13 | 80% |  | CCCN(Cc1ccc(Oc2ccccc2)cc1)C(=O)C1C(C(=O)O)C(C(=O)Nc2nnn[nH]2)C1C(=O)N(CCC)Cc1ccc(Oc2ccccc2)cc1 (stereo not drawn) [Example 92B, (1α,2β,3β,4a)-1,2-Di[N-propyl-N-(4-phenoxybenzyl)aminocarbonyl]cyclobutane-3-[N-(5-tetrazolyl)]carboxamide-4-carboxylic acid]
14 |  | 92% | CCCN(Cc1ccc(Oc2ccccc2)cc1)C(=O)C1C(C(=O)O)C(C(=O)NCC(=O)O)C1C(=O)N(CCC)Cc1ccc(Oc2ccccc2)cc1 (stereo not drawn) [Example 106, (1α,2β,3β,4α)-1,2-Di[N-propyl-N-(4-phenoxybenzyl)aminocarbonyl]cyclobutane-3-4-dicarboxylic acid mono-Glycine amide]
15 | 75% |  | CCCN(Cc1ccc(Oc2ccccc2)cc1)C(=O)C1C(C(=O)O)C(C(=O)N2CCCC2C(=O)O)C1C(=O)N(CCC)Cc1ccc(Oc2ccccc2)cc1 (stereo not drawn) [Example 107, (1α,2β,3β,4α)-1,2-Di[N-propyl-N-(4-phenoxybenzyl)aminocarbonyl]cyclobutane-3,4-dicarboxylic acid mono-d,l-Proline amide]
16 | 59% |  | CCCN(Cc1ccc(Oc2ccccc2)cc1)C(=O)C1C(C(=O)O)C(C(=O)N(C)CC(=O)O)C1C(=O)N(CCC)Cc1ccc(Oc2ccccc2)cc1 (stereo not drawn) [Example 108, (1α,2β,3β,4α)-1,2-Di[N-propyl-N-(4-phenoxybenzyl)aminocarbonyl]cyclobutane-3,4-dicarboxylic acid mono-Sarcosine amide]
17 | 78% |  | CCCN(Cc1ccc(Oc2ccccc2)cc1)C(=O)C1C(C(=O)O)C(C(=O)NC(CC(=O)O)C(=O)O)C1C(=O)N(CCC)Cc1ccc(Oc2ccccc2)cc1 (stereo not drawn) [Example 109, (1α,2β,3β,4α)-1,2-Di[N-propyl-N-(4-phenoxybenzyl)aminocarbonyl]cyclobutane-3,4-dicarboxylic acid mono-d,l-Aspartic acid amide]
18 | 49% |  | CCCN(Cc1ccc(Oc2ccccc2)cc1)C(=O)C1C(C(=O)O)C(C(=O)NCCC(=O)O)C1C(=O)N(CCC)Cc1ccc(Oc2ccccc2)cc1 (stereo not drawn) [Example 111, (1α,2β,3β,4α)-1,2-Di[N-propyl-N-(4-phenoxybenzyl)aminocarbonyl]cyclobutane-3,4-dicarboxylic acid mono-β-Alanine amide]
19 |  | 51% | CCCN(Cc1ccc(C(=O)c2ccccc2)cc1)C(=O)C1C(C(=O)O)C(C(=O)O)C1C(=O)N(CCC)Cc1ccc(C(=O)c2ccccc2)cc1 (stereo not drawn) [Example 118B, (1α,2β,3β,4α)-1,2-Di[N-propyl-N-(4-benzoylbenzyl)aminocarbonyl]cyclobutane-3,4-carboxylic acid]
20 |  | 54% | CN(Cc1ccc(Oc2ccccc2)cc1)C(=O)NC1C(NC(=O)N(C)Cc2ccc(Oc3ccccc3)cc2)C(C(=O)O)C1C(=O)O (stereo not drawn) [Example 120, (1α,2β,3β,4α)-1,2-Di[N-methyl-N-(4-phenoxybenzyl)aminocarbonylamino]cyclobutane-3,4-dicarboxylic acid]
21 |  | 44% | O=C(O)C1C(C(=O)O)C(C(=O)N(Cc2ccccc2)Cc2ccccc2)C1C(=O)N(Cc1ccccc1)Cc1ccccc1 (stereo not drawn) [Example 121, (1α,2β,3β,4α)-1,2-Di[N,N-dibenzylaminocarbonyl]cyclobutane-3,4-dicarboxylic acid]
22 |  | 57% | O=C(O)C1C(C(=O)O)C(C(=O)N(Cc2ccccc2)Cc2ccc(Cl)cc2)C1C(=O)N(Cc1ccccc1)Cc1ccc(Cl)cc1 (stereo not drawn) [Example 122B, (1α,2β,3β,4α)-1,2-Di[N-benzyl-N-(4-chlorobenzyl)aminocarbonyl]cyclobutane-3,4-dicarboxylic acid]
